These are literature values, as cited in patent publication US20200046664A1, “METHOD FOR PREPARATION OF LIQUID ORAL COMPOSITION OF L-THYROXIN” (FTF PHARMA PRIVATE LIMITED, priority 2016, published 2020).

For `N[C@@H](Cc1cc(I)c(Oc2cc(I)c(O)c(I)c2)c(I)c1)C(=O)[O-].[Na+]` [Levothyroxine sodium, Sodium (2S)-2-amino-3-[4-(4-hydroxy-3,5-diiodophenoxy)-3,5-diiodophenyl]propanoate], the “Solubility in ethanol (96 percent)” value (ethanol (96 percent)) is “slightly soluble”. Besides, for the setting “water”, the Solubility in water entry was “very slightly soluble”.
